Target: T1, SIRT1 (Homo sapiens, UniProt Q96EB6)
T1 sequence (Q96EB6 1-747): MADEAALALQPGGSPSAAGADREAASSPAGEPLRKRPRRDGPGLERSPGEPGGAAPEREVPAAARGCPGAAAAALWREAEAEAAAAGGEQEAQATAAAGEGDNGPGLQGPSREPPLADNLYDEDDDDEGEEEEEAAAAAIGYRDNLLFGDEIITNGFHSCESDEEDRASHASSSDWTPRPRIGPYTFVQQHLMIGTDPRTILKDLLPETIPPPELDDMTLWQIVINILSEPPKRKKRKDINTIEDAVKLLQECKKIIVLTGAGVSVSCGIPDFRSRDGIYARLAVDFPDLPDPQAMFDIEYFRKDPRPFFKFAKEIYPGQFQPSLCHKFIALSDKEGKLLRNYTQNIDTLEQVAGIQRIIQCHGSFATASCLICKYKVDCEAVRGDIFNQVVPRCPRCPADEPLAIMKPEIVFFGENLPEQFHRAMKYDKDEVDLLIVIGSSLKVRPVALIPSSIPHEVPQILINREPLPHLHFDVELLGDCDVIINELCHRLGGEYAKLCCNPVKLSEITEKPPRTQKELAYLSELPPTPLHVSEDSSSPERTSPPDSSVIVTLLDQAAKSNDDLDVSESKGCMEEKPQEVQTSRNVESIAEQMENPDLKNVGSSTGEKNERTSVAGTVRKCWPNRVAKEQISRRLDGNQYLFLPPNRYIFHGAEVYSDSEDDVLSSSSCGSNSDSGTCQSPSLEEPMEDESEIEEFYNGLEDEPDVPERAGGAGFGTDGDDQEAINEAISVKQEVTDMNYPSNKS
Experiment: Mass spectrometry based SIRT1 deacetylation (activation) assay
Assay type: biochemical
Conditions: 0.5 μM peptide substrate, 120 μM βNAD+, 10 nM SIRT1, 25 min at 25° C.; for Emax: 25 min, read-out: % Fold Act. (percent maximum fold activation)
Excerpt: A mass spectrometry based assay was used to identify modulators of SIRT1 activity. The mass spectrometry based assay utilizes a peptide having 20 amino acid residues as follows: Ac-EE-K(biotin)-GQSTSSHSK(Ac)NleSTEG-K(5TMR)-EE-NH2 (SEQ ID NO: 1) wherein K(Ac) is an acetylated lysine residue and Nle is a norleucine. The peptide is labeled with the fluorophore 5TMR (excitation 540 nm/emission 580 nm) at the C-terminus. The sequence of the peptide substrate is based on p53 with several modifications. In addition, the methionine residue naturally present in the sequence was replaced with the norleucine because the methionine may be susceptible to oxidation during synthesis and purification.
The mass spectrometry assay is conducted as follows: 0.5 μM peptide substrate and 120 μM βNAD^+ is incubated with 10 nM SIRT1 for 25 minutes at 25° C. in a reaction buffer (50 mM Tris-acetate pH 8, 137 mM NaCl, 2.7 mM KCl, 1 mM MgCl2, 5 mM DTT, 0.05% BSA). Test compounds may be added to the reaction as described above. […] After the 25 minute incubation with SIRT1, 10 μL of 10% formic acid is added to stop the reaction. Reactions are sealed and frozen for later mass spec analysis. Determination of the mass of the substrate peptide allows for precise determination of the degree of acetylation (i.e. starting material) as compared to deacetylated peptide (product).
A control for inhibition of sirtuin activity is conducted by adding 1 μL of 500 mM nicotinamide as a negative control at the start of the reaction (e.g., permits determination of maximum sirtuin inhibition). A control for activation of sirtuin activity is conducted using 10 nM of sirtuin protein, with 1 μL of DMSO in place of compound, to determine the amount of deacetylation of the substrate at a given timepoint within the linear range of the assay. This timepoint is the same as that used for test compounds and, within the linear range, the endpoint represents a change in velocity.
For the above assay, SIRT1 protein was expressed and purified as follows. […] The protein was expressed by induction with 1 mM IPTG as an N-terminal His-tag fusion protein at 18° C. overnight and harvested at 30,000×g. Cells were lysed with lysozyme in lysis buffer (50 mM Tris-HCl, 2 mM Tris[2-carboxyethyl]phosphine (TCEP), 10 μM ZnCl2, 200 mM NaCl) and further treated with sonication for 10 min for complete lysis. The protein was purified over a Ni-NTA column (Amersham) and fractions containing pure protein were pooled, concentrated and run over a sizing column (Sephadex S200 26/60 global). The peak containing soluble protein was collected and run on an Ion-exchange column (MonoQ). Gradient elution (200 mM-500 mM NaCl) yielded pure protein. This protein was concentrated and dialyzed against dialysis buffer (20 mM Tris-HCl, 2 mM TCEP) overnight. The protein was aliquoted and frozen at −80° C. until further use.

Row | SMILES | EC1.5 | Emax [%]
1 | CNC(=O)c1ccccc1NC(=O)c1cc(NCCN(C)C)nc(-c2ccccc2)n1 [Compound 125, 6-(2-(dimethylamino)ethylamino)-N-(2-(methylcarbamoyl)phenyl)-2-phenylpyrimidine-4-carboxamide] | B (EC1.5>1 and ≦10 uM) | ≥ 300
2 | CNCCN(C)c1cc(C(=O)Nc2ccccc2-c2nnc(-c3ccccc3)s2)nc(-c2ccccc2)n1 [Compound 32] | A (EC1.5≦1 uM) | ≥ 300
3 | CC(C)C(=O)c1ccccc1NC(=O)c1cc(NCCN(C)C)nc(-c2ccccc2)n1 [Compound 142] | B (EC1.5>1 and ≦10 uM) | 150 to 300
4 | CN(C)CCNc1cc(C(=O)Nc2ccccc2-c2c[nH]c(-c3ccccc3)n2)nc(-c2ccccc2)n1 [Compound 15] | A (EC1.5≦1 uM) | ≥ 300
5 | CC(C)(C)c1cnc(-c2ccccc2NC(=O)c2cc(N3CCOCC3)cc(-c3ccccc3)n2)o1 [Compound 70] | A (EC1.5≦1 uM) | 150 to 300
6 | CN(C)CCNc1cc(C(=O)Nc2ccccc2-c2nnc(-c3cccnc3)s2)nc(-c2ccccc2)n1 [Compound 77] | A (EC1.5≦1 uM) | ≥ 300
7 | CN(C)CCNc1cc(C(=O)Nc2ccccc2C(=O)Nc2c(Cl)cccc2Cl)nc(-c2ccccc2)n1 [Compound 162, N-(2-(2,6-dichlorophenylcarbamoyl)phenyl)-6-(2-(dimethylamino)ethylamino)-2-phenylpyrimidine-4-carboxamide] | A (EC1.5≦1 uM) | ≥ 300
8 | CCN(CCN(C)C)c1cc(C(=O)Nc2ccccc2-c2nnc(C(C)C)s2)nc(-c2ccccc2)n1 [Compound 83] | A (EC1.5≦1 uM) | ≥ 300
9 | CCN(CCN(C)C)c1cc(C(=O)Nc2ccccc2C(=O)NC2CCCCC2)nc(-c2ccccc2)n1 [Compound 165, N-(2-(cyclohexylcarbamoyl)phenyl)-6-((2-(dimethylamino)ethyl)(ethyl)amino)-2-phenylpyrimidine-4-carboxamide] | A (EC1.5≦1 uM) | 150 to 300
10 | CCN(CCN(C)C)c1cc(C(=O)Nc2ccccc2-c2nnc(C3CCCC3)s2)nc(-c2ccccc2)n1 [Compound 50] | B (EC1.5>1 and ≦10 uM) | 150 to 300
11 | CN(C)CCNc1cc(C(=O)Nc2ccccc2-c2ncc(-c3ccccc3)o2)nc(-c2ccccc2)n1 [Compound 38] | A (EC1.5≦1 uM) | 150 to 300
12 | CCN(CCN(C)C)c1cc(C(=O)Nc2ccccc2C(=O)NC2CCCC2)nc(-c2ccccc2)n1 [Compound 169, N-(2-(cyclopentylcarbamoyl)phenyl)-6-((2-(dimethylamino)ethyl)(ethyl)amino)-2-phenylpyrimidine-4-carboxamide] | B (EC1.5>1 and ≦10 uM) | ≥ 300
13 | CCCCC(=O)c1ccccc1NC(=O)c1cc(NCCN(C)C)nc(-c2ccccc2)n1 [Compound 127] | B (EC1.5>1 and ≦10 uM) | 150 to 300
14 | CN1CCN(c2cc(C(=O)Nc3ccccc3-c3nnc(C(=O)N4CCOCC4)s3)nc(-c3ccccc3)n2)CC1=O [Compound 88] | A (EC1.5≦1 uM) | ≥ 300
15 | CC(=O)c1ccccc1NC(=O)c1cc(NC2CCN(C)CC2)nc(-c2ccccc2)n1 [Compound 143] | A (EC1.5≦1 uM) | ≥ 300
16 | NC(=O)c1nnc(-c2ccccc2NC(=O)c2cc(N3CCNCC3)nc(-c3ccccc3)n2)s1 [Compound 67] | A (EC1.5≦1 uM) | 150 to 300

Row | SMILES | EC1.5 | Emax [%]
17 | CN(C)CCNc1cc(C(=O)Nc2ccccc2C(=O)Nc2cc(Cl)ccc2Cl)nc(-c2ccccc2)n1 [Compound 161, N-(2-(2,5-dichlorophenylcarbamoyl)phenyl)-6-(2-(dimethylamino)ethylamino)-2-phenylpyrimidine-4-carboxamide] | B (EC1.5>1 and ≦10 uM) | 150 to 300
18 | O=C(Nc1ccccc1-c1ncc(-c2ccccc2)s1)c1cc(NCCN2CCCCC2)nc(-c2ccccc2)n1 [Compound 17] | A (EC1.5≦1 uM) | 150 to 300
19 | O=C(Nc1ccccc1-c1nncs1)c1cc(OC[C@@H](O)CO)nc(-c2ccccc2)n1 [Compound 110] | A (EC1.5≦1 uM) | ≥ 300
20 | Cc1cccc(NC(=O)c2ccccc2NC(=O)c2cc(NCCN(C)C)nc(-c3ccccc3)n2)c1 [Compound 146, 6-(2-(dimethylamino)ethylamino)-2-phenyl-N-(2-(m-tolylcarbamoyl)phenyl)pyrimidine-4-carboxamide] | B (EC1.5>1 and ≦10 uM) | ≥ 300
21 | CN(C)CCNC(=O)c1ccccc1NC(=O)c1cc(NCCN(C)C)nc(-c2ccccc2)n1 [Compound 121, 6-(2-(dimethylamino)ethylamino)-N-(2-(2-(dimethylamino)ethylcarbamoyl)phenyl)-2-phenylpyrimidine-4-carboxamide] | B (EC1.5>1 and ≦10 uM) | 150 to 300
22 | CN(C)CCNc1cc(C(=O)Nc2ccccc2C(=O)c2ccccc2)nc(-c2ccccc2)n1 [Compound 131] | B (EC1.5>1 and ≦10 uM) | 150 to 300
23 | CCc1ccccc1NC(=O)c1cc(NCCN(C)C)nc(-c2ccccc2)n1 [Compound 1] | C (EC1.5>10 uM) | 150 to 300
24 | CCN(CCN(C)C)c1cc(C(=O)Nc2ccccc2C(=O)c2nccs2)nc(-c2ccccc2)n1 [Compound 177] | A (EC1.5≦1 uM) | ≥ 300
25 | CCN(CCN(C)C)c1cc(C(=O)Nc2ccccc2-c2nnc(CC(C)C)s2)nc(-c2ccccc2)n1 [Compound 80] | B (EC1.5>1 and ≦10 uM) | 150 to 300
26 | O=C(Nc1ccccc1-c1nnc(N2CCOCC2)s1)c1cc(OC[C@@H](O)CO)nc(-c2ccccc2)n1 [Compound 108] | A (EC1.5≦1 uM) | ≥ 300
27 | CN(C)CCNc1cc(C(=O)Nc2ccccc2-c2nnc(N3CCOCC3)s2)nc(-c2ccccc2)n1 [Compound 101] | A (EC1.5≦1 uM) | ≥ 300
28 | COCCNc1cc(C(=O)Nc2ccccc2-c2nnc(N3CCN4CCC[C@H]4C3)s2)nc(-c2ccccc2)n1 [Compound 117] | A (EC1.5≦1 uM) | 150 to 300
29 | O=C1CN(c2cc(C(=O)Nc3ccccc3-c3nnc(N4CCOCC4)s3)nc(-c3ccccc3)n2)CCN1 [Compound 103] | A (EC1.5≦1 uM) | ≥ 300
30 | CCN(CCOC)c1cc(C(=O)Nc2ccccc2-c2ncc(C(C)(C)C)s2)nc(-c2ccccc2)c1 [Compound 84] | A (EC1.5≦1 uM) | 150 to 300
31 | CCN(CCN(C)C)c1cc(C(=O)Nc2ccccc2-c2nnc(-c3cccnc3)s2)nc(-c2ccccc2)n1 [Compound 81] | A (EC1.5≦1 uM) | ≥ 300
32 | CN(C)CCNc1cc(C(=O)Nc2ccccc2C(=O)Nc2cccnc2)nc(-c2ccccc2)n1 [Compound 155, 6-(2-(dimethylamino)ethylamino)-2-phenyl-N-(2-(pyridin-3-ylcarbamoyl)phenyl)pyrimidine-4-carboxamide] | A (EC1.5≦1 uM) | ≥ 300
